Measured values from ChEMBL document CHEMBL1144690, “Isolation of cytotoxic metabolites from targeted peruvian amazonian medicinal plants” (2008).
Values after ≈ are worked out from the molar mass of the structure shown.

Tested on: Mycobacterium tuberculosis
Assay: Antimicrobial activity against multidrug resistant Mycobacterium tuberculosis
Type: functional

For `C/C=C1/CN2CC[C@@]34c5ccccc5N5/C=C6/[C@H]7C[C@@H]8N(CC[C@@]89c8ccccc8N(/C=C(/[C@H]1C[C@H]23)[C@H]54)[C@@H]69)C/C7=C/C` [BISNORDIHYDROTOXIFERINE], the MIC was 6.25 µg/mL (≈ 11.3 µM).
